ChEMBL document CHEMBL1201862, “PubChem BioAssay data set” (2004)
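Assay format: 96-well plates, 48-hour exposure. The concentration for 50% growth inhibition is given as GI50.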 Activity calls are given as the source filed them. Cut-off read from the data, not from the text of the source: active = GI50 up to about 1.1 µM and inactive = higher. Where a SMILES comes first, the peptide text is derived from it. The star is where a group is joined. CH2Cl = ClC*

Tests used:
Assay in all cases: NCI tumour cell line growth inhibition, 48 h
[1] = test system: 786-0
[2] = test system: BT-549
[3] = test system: CAKI-1
[4] = test system: HCT-116
[5] = test system: HCT-15
[6] = test system: HT-29
[7] = test system: Hs-578T
[8] = test system: MDA-MB-231
[9] = test system: MOLT-4
[10] = test system: Malme-3M
[11] = test system: NCI-H23
[12] = test system: OVCAR-5
[13] = test system: OVCAR-8
[14] = test system: RPMI-8226
[15] = test system: RXF 393
[16] = test system: SF-295
[17] = test system: SK-OV-3
[18] = test system: SR
[19] = test system: SW-620
[20] = test system: T47D

For `CC(=O)NC(CC(C)C)C(=O)NC(Cc1ccccc1)C(=O)CCl` (stereo not drawn) (Ac-Leu-Phe-CH2Cl; configuration not given here), the GI50 [1] was 4 µM (inactive), the GI50 [2] was 14.9 µM (inactive) and the GI50 [3] was 17.4 µM (inactive). The GI50 [4] was 5.22 µM (inactive), the GI50 [5] was 3.16 µM and the GI50 [6] was 8.38 µM (inactive). The GI50 [7] was 17.3 µM (inactive), the GI50 [8] was 12.1 µM (inactive) and the GI50 [9] was 1.84 µM (inactive). For the same molecule, the GI50 [10] was 5.05 µM (inactive), the GI50 [11] was 13.1 µM (inactive) and the GI50 [12] was 17.5 µM (inactive). For the same molecule, the GI50 [13] was 4.69 µM (inactive), the GI50 [14] was 2.69 µM (inactive) and the GI50 [15] was 1.96 µM (inactive). For the same molecule, the GI50 [16] was 18.8 µM (inactive), the GI50 [17] was 18.1 µM (inactive) and the GI50 [18] was 2.55 µM (inactive). The GI50 [19] was 2.67 µM (inactive) and the GI50 [20] was 7.82 µM (inactive).
